Laboratory results reported in ChEMBL document CHEMBL1139097, “Synthesis and QSAR studies on hypotensive 1-[3-(4-substituted phenylthio) propyl]-4-(substituted phenyl) piperazines” (Bioorg Med Chem Lett, 2007).

Key:
Felis catus = test: Hypotensive activity in anaesthetized cat assessed as blood pressure fall at 2 umol/kg, iv; format: functional
[1] = target: 5-hydroxytryptamine receptor 2A (Rattus norvegicus) (UniProt P14842); test: Displacement of [3H]ketanserin from rat cloned 5HT2A receptor expressed in NIH-3T3-GF6 cells at 10^-6M relative to ketanserin; format: cell-based
Sequence of 5-hydroxytryptamine receptor 2A (Rattus norvegicus) (P14842 whole entry): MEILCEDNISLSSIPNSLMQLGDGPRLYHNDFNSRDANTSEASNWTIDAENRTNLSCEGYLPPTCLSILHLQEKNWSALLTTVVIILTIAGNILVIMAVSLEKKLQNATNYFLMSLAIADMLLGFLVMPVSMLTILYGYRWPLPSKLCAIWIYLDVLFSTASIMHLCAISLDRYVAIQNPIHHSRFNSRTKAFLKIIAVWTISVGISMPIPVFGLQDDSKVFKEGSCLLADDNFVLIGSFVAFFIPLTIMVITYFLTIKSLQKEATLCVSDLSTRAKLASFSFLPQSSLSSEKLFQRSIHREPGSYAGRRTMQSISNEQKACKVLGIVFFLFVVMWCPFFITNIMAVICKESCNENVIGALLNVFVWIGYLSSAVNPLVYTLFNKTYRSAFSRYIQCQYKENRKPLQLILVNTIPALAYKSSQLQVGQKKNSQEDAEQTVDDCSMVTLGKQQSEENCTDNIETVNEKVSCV

[2] = target: 5-hydroxytryptamine receptor 2A (Rattus norvegicus, UniProt P14842); test: Displacement of [3H]ketanserin from rat cloned 5HT2A receptor expressed in NIH-3T3-GF6 cells; format: cell-based
Sequence of 5-hydroxytryptamine receptor 2A (P14842 whole entry): as above

| Activity [1] | Ki [2] | Compound | Activity (Felis catus) |
| --- | --- | --- | --- |
| – | – | Cc1ccc(SCCCN2CCN(c3ccccc3C)CC2)cc1 | 61.02% |
| 32.9% | – | Fc1ccc(SCCCN2CCN(c3ccc(F)cc3)CC2)cc1 | 20.66% |
| – | – | COc1ccccc1N1CCN(CCCSc2ccccc2)CC1 | 26.23% |
| – | – | CCNc1ccc(SCCCN2CCN(c3ccccc3C)CC2)cc1 | 48.65% |
| – | – | Cc1ccccc1N1CCN(CCCSc2ccc(Cl)cc2)CC1 | 40% |
| 72.7% | 21.1 nM | CC(=O)Nc1ccc(SCCCN2CCN(c3ccccc3C)CC2)cc1 | 51.61% |
| – | – | CCNc1ccc(SCCCN2CCN(c3cccc(C)c3)CC2)cc1 | 41.14% |
| – | – | Cc1cccc(N2CCN(CCCSc3ccc(Cl)cc3)CC2)c1 | 43.8% |
| – | – | COc1ccc(SCCCN2CCN(c3cccc(Cl)c3)CC2)cc1 | 42.62% |
| – | – | Clc1ccc(SCCCN2CCN(c3ccc(Cl)c(Cl)c3)CC2)cc1 | 26.58% |
| – | – | Fc1ccc(N2CCN(CCCSc3ccc(Br)cc3)CC2)cc1 | 19.86% |
| 37% | – | Fc1ccc(SCCCN2CCN(c3ccccc3)CC2)cc1 | 14.28% |
| – | – | Nc1ccc(SCCCN2CCN(c3ccc(F)cc3)CC2)cc1 | 13.51% |
| – | – | COc1ccc(SCCCN2CCN(c3cccc(C(F)(F)F)c3)CC2)cc1 | 53.42% |
| – | – | COc1ccc(SCCCN2CCN(c3ccc(Cl)c(Cl)c3)CC2)cc1 | 21.05% |
| 85.4% | – | CC(=O)Nc1ccc(SCCCN2CCN(c3ccc(F)cc3)CC2)cc1 | 21.21% |
| – | – | Cc1ccc(SCCCN2CCN(c3ccc(F)cc3)CC2)cc1 | 21.74% |
| – | – | COc1ccc(SCCCN2CCN(c3cccc(F)c3)CC2)cc1 | 17.02% |
| – | – | Fc1ccc(SCCCN2CCN(c3ccc(Cl)c(Cl)c3)CC2)cc1 | 38.3% |
| – | – | Cc1ccc(SCCCN2CCN(c3cccc(C)c3)CC2)cc1 | 55.74% |
| – | – | O=[N+]([O-])c1ccc(SCCCN2CCN(c3ccc(F)cc3)CC2)cc1 | 25.87% |

| Activity [1] | Ki [2] | Compound | Activity (Felis catus) |
| --- | --- | --- | --- |
| 37.4% | – | c1ccc(SCCCN2CCN(c3ccccc3)CC2)cc1 | 41.07% |
| 25.7% | – | COc1ccc(N2CCN(CCCSc3ccc(F)cc3)CC2)cc1 | 12.49% |
| – | – | Cc1ccc(SCCCN2CCN(c3ccc(Cl)c(Cl)c3)CC2)cc1 | 36.36% |
| – | – | COc1ccccc1N1CCN(CCCSc2ccc(Br)cc2)CC1 | 21.59% |
| – | – | Cc1cccc(N2CCN(CCCSc3ccc(F)cc3)CC2)c1 | 38.3% |
| – | – | COc1ccc(SCCCN2CCN(c3ccc(F)cc3)CC2)cc1 | 17.46% |
| – | – | COc1ccc(N2CCN(CCCSc3ccccc3)CC2)cc1 | 15.38% |
| – | – | Cc1ccccc1N1CCN(CCCSc2ccc([N+](=O)[O-])cc2)CC1 | 42% |
| – | – | Fc1ccc(N2CCN(CCCSc3ccccc3)CC2)cc1 | 20.69% |
| 94.7% | 6.09 nM | CC(=O)Nc1ccc(SCCCN2CCN(c3cccc(C)c3)CC2)cc1 | 55% |
| 37.1% | – | COc1ccc(N2CCN(CCCSc3ccc(Br)cc3)CC2)cc1 | 23.06% |
| – | – | Cc1ccccc1N1CCN(CCCSc2ccc(F)cc2)CC1 | 37.59% |
| – | – | Clc1ccc(N2CCN(CCCSc3ccccc3)CC2)cc1Cl | 45.83% |
| 80.5% | 21.1 nM | Cc1cccc(N2CCN(CCCSc3ccc([N+](=O)[O-])cc3)CC2)c1 | 84.41% |
| – | – | Fc1ccc(SCCCN2CCN(c3cccc(F)c3)CC2)cc1 | 34% |
| – | – | COc1ccc(SCCCN2CCN(c3cccc(C)c3)CC2)cc1 | 21.4% |
| – | – | CC(=O)Nc1ccc(SCCCN2CCN(c3ccc(Cl)c(Cl)c3)CC2)cc1 | 20% |
| – | – | Cc1cccc(N2CCN(CCCSc3ccc(N)cc3)CC2)c1 | 24.28% |
| 75.6% | 13.6 nM | Cc1cccc(N2CCN(CCCSc3ccccc3)CC2)c1 | 65.15% |
| – | – | Clc1cccc(N2CCN(CCCSc3ccccc3)CC2)c1 | 55.99% |
| – | – | Fc1ccc(N2CCN(CCCSc3ccc(Cl)cc3)CC2)cc1 | 42.31% |
